The source of these data is patent US7598389B2, “Silylated carboxamides” (Bayer Cropscience AG, priority 2003, dated 2009).

For one data set, the system named is Sphaerotheca fuliginea. Kind of data set: Sphaerotheca test (cucumber)/protective. Type of data set: in vivo. As to conditions: cucumber plants, protective; application rate 750 g/ha; evaluation 7 days after inoculation. As to the method:
Sphaerotheca Test (Cucumber)/Protective
(§1) To produce a suitable preparation of active compound, 1 part by weight of active compound is mixed with the stated amounts of solvent and emulsifier, and the concentrate is diluted with water to the desired concentration.
To test for protective activity, young cucumber plants are sprayed with the preparation of active compound at the stated application rate. One day after the treatment, the plants are inoculated with a spore suspension of Sphaerotheca fuliginea. The plants are then placed in a greenhouse at 70% relative atmospheric humidity and a temperature of 23° C.
Evaluation is carried out 7 days after the inoculation. 0% means an efficacy which corresponds to that of the control, whereas an efficacy of 100% means that no infection is observed.
`C[Si](C)(C)CCc1ccccc1NC(=O)c1ccccc1Br` [drawing 67] had an Efficacy in % of 100%. The compound `CC(C[Si](C)(C)C)c1ccccc1NC(=O)c1ccccc1I` (stereo not shown) [drawing 66] returned an Efficacy in % of 100%.

Regarding `CC(C[Si](C)(C)C)c1ccccc1NC(=O)c1ccccc1C(F)(F)F` (stereo not shown) [drawing 65], the Efficacy in % is 100%.

A further data set relates to Puccinia recondite. The experiment in a line: Puccinia test (wheat)/protective. As to conditions: 240 h, wheat plants, protective, application rate 500 g/ha, evaluation ten days after inoculation, read-out: Efficacy in %. Type of data set: in vivo. Here is the method:
Puccinia Test (Wheat)/Protective
To produce a suitable preparation of active compound, 1 part by weight of active compound is mixed with the stated amount of solvent and emulsifier, and the concentrate is diluted with water to the desired concentration.
To test for protective activity, young plants are sprayed with the preparation of active compound at the stated application rate. After the spray coating has dried on, the plants are sprayed with a conidia suspension of Puccinia recondite. The plants remain in an incubation cabin at 20° C. and 100% relative atmospheric humidity for 48 hours.
The plants are then placed in a greenhouse at a temperature of about 20° C. and a relative atmospheric humidity of 80% to promote the development of rust pustules.
Evaluation is carried out ten days after the inoculation. 0% means an efficacy which corresponds to that of the control, whereas an efficacy of 100% means that no infection is observed.
Consider `CC(C[Si](C)(C)C)c1ccccc1NC(=O)c1ccccc1Br` (stereo not shown), for which the pest or weed control at 500 g/ha stood at 100%. As to `C[Si](C)(C)CCc1cc(F)ccc1NC(=O)c1sccc1I` [drawing 76], the pest or weed control at 500 g/ha worked out at 100%. On to `CC(C[Si](C)(C)C)c1ccccc1NC(=O)c1sccc1I` (stereo not shown) [drawing 78], for which the pest or weed control at 500 g/ha is 100%. As for `C[Si](C)(C)CCc1ccccc1NC(=O)c1ccccc1I` [drawing 70], the pest or weed control at 500 g/ha was found to be 100%. On the same count and under the same terms, the value for `Cc1occc1C(=O)Nc1ccccc1CC[Si](C)(C)C` [drawing 73] was 100%. Regarding `CC(C[Si](C)(C)C)c1ccccc1NC(=O)c1occc1I` (stereo not shown) [drawing 77], the pest or weed control at 500 g/ha turned out to be 100%. The same measure, in the same setting: the value for `C[Si](C)(C)CCc1ccccc1NC(=O)c1sccc1I` [drawing 75] was 100%; that for `CC(C[Si](C)(C)C)c1ccccc1NC(=O)c1cn(C)nc1I` (stereo not shown) [drawing 80] was 100%.

`C[Si](C)(C)CCc1ccccc1NC(=O)c1ccccc1C(F)(F)F` [drawing 68]: the pest or weed control at 500 g/ha came to 93%. Same read-out and setting: as for `Cn1cc(C(=O)Nc2ccccc2CC[Si](C)(C)C)c(I)n1` [drawing 72], the figure is 100%. Regarding `C[Si](C)(C)CCc1ccccc1NC(=O)c1ccccc1Br` [drawing 71], the pest or weed control at 500 g/ha amounted to 100%.

Consider `CC(C[Si](C)(C)C)c1ccccc1NC(=O)c1ccccc1I` (stereo not shown) [drawing 69], for which the pest or weed control at 500 g/ha worked out at 100%. The same measure, in the same setting: as for `Cc1ccsc1C(=O)Nc1ccccc1CC[Si](C)(C)C` [drawing 74], the figure is 100%.

The subject of the next data set is Venturia inaequalis. Kind of data set: Venturia test (apple)/protective. As to conditions: 240 h, apple plants, protective, application rate 100 g/ha, evaluation 10 days after inoculation, read-out: Efficacy in %. Type of data set: in vivo. Here is the method:
Venturia Test (Apple)/Protective
as §1
To test for protective activity, young plants are sprayed with the preparation of active compound at the stated application rate. After the spray coating has dried on, the plants are inoculated with an aqueous conidia suspension of the apple pathogen Venturia inaequalis and then remain in an incubation cabin at about 20° C. and 100% relative atmospheric humidity for one day.
The plants are then placed in a greenhouse at about 21° C. and a relative atmospheric humidity of about 90%.
Evaluation is carried out 10 days after the inoculation. 0% means an efficacy which corresponds to that of the control, whereas an efficacy of 100% means that no infection is observed.
Regarding `CC(C[Si](C)(C)C)c1ccccc1NC(=O)c1ccccc1I` (stereo not shown) [drawing 55], the pest or weed control at 100 g/ha was found to be 100%. The same measure, in the same setting: as for `CC(C[Si](C)(C)C)c1ccccc1NC(=O)c1sccc1I` (stereo not shown) [drawing 63], the figure is 100%. Still for that read-out and setting: as for `CC(C[Si](C)(C)C)c1ccccc1NC(=O)c1ccccc1C(F)(F)F` (stereo not shown) [drawing 54], the figure is 99%. As for `Cc1ccsc1C(=O)Nc1ccccc1CC[Si](C)(C)C` [drawing 60], the pest or weed control at 100 g/ha amounted to 100%. `C[Si](C)(C)CCc1ccccc1NC(=O)c1ccccc1C(F)(F)F` [drawing 56]: the pest or weed control at 100 g/ha was determined as 84%. Same read-out and setting: the value for `CC(C[Si](C)(C)C)c1ccccc1NC(=O)c1occc1I` (stereo not shown) [drawing 62] was 100%. The same measure, in the same setting: as for `C[Si](C)(C)CCc1ccccc1NC(=O)c1ccccc1Br` [drawing 57], the figure is 87%; as for `Cn1cc(C(=O)Nc2ccccc2CC[Si](C)(C)C)c(I)n1` [drawing 59], 100%. Still for that read-out and setting: as for `C[Si](C)(C)CCc1cc(F)ccc1NC(=O)c1sccc1I` [drawing 61], the figure is 100%. For the compound `CC(C[Si](C)(C)C)c1ccccc1NC(=O)c1cn(C)nc1I` (stereo not shown) [drawing 64], the pest or weed control at 100 g/ha was determined as 99%. For `Cn1nc(C(F)(F)F)c(C(=O)Nc2ccccc2CC[Si](C)(C)C)c1F` [drawing 58], the pest or weed control at 100 g/ha was determined as 100%.

Test system in the next data set: not listed separately
The experiment in a line: log P determination by HPLC on reverse-phase column (EEC Directive 79/831 Annex V.A8). Type of data set: physicochemical. As to conditions: Table 1, C 18 reverse-phase column, 43° C., acidic range (pH 2.3). Here is the method: The given log P values were determined in accordance with EEC Directive 79/831 Annex V.A8 by HPLC (High Performance Liquid Chromatography) on a reverse-phase column (C 18). Temperature: 43° C.
Mobile phases for the determination in the acidic range (pH 2.3): 0.1% aqueous phosphoric acid, acetonitrile; linear gradient from 10% acetonitrile to 90% acetonitrile.
Calibration was carried out using unbranched alkan-2-ones (3 to 16 carbon atoms) with known log P values (determination of the log P values by the retention times using linear interpolation between two successive alkanones).
As usually defined, the logP is the decadic logarithm of the partition coefficient of the neutral form, usually between octanol and water. A low value points to lower lipophilicity. Take `C[Si](C)(C)CCc1cc(F)ccc1NC(=O)c1sccc1I` [Example 25]: the logP is 4.79.

With `CC(C[Si](C)(C)C)c1cc(F)ccc1NC(=O)c1ccccc1C(F)(F)F` (racemic) [Example 22], the logP was 4.61. The compound `C[Si](C)(C)CCc1ccccc1NC(=O)c1ccccc1Cl` [Example 5] showed a logP of 4.29. Turning to `Cc1occc1C(=O)Nc1ccccc1CC[Si](C)(C)C` [Example 16], the logP turned out to be 4.03. Still for that read-out and setting: as for `CC(C[Si](C)(C)C)c1cc(F)ccc1NC(=O)c1ccccc1I` (racemic) [Example 23], the figure is 4.64. Same read-out and setting: the value for `Cn1nc(C(F)(F)F)c(C(=O)Nc2ccccc2CC[Si](C)(C)C)c1F` [Example 10] was 4.19.

The compound `C[Si](C)(C)C#Cc1ccccc1NC(=O)c1ccccc1C(F)(F)F` [Example 18] gave a logP of 4.78.

Consider `C[Si](C)(C)CCc1ccccc1NC(=O)c1sccc1I` [Example 24], for which the logP is 4.85. Still for that read-out and setting: as for `C[Si](C)(C)CCc1ccccc1NC(=O)c1ccccc1C(F)(F)F` [Example 6], the figure is 4.37; as for `CC(C[Si](C)(C)C)c1ccccc1NC(=O)c1sccc1I` (racemic) [Example 12], 5.05. The compound `Cn1cc(C(=O)Nc2ccccc2CC[Si](C)(C)C)c(C(Cl)Cl)n1` [Example 9] gave a logP of 3.95. As to `Cc1occc1C(=O)Nc1ccccc1C(C)C[Si](C)(C)C` (racemic) [Example 17], the logP is reported as 4.33. Still for that read-out and setting: the value for `C[Si](C)(C)C#Cc1ccccc1NC(=O)c1ccccc1Br` [Example 21] was 4.93. The same measure, in the same setting: the value for `Cn1cc(C(=O)Nc2ccccc2CC[Si](C)(C)C)c(Cl)n1` [Example 14] was 3.89; that for `CC(C[Si](C)(C)C)c1ccccc1NC(=O)c1cn(C)nc1I` (racemic) [Example 15] was 3.94. Same read-out and setting: the value for `CC(C[Si](C)(C)C)c1ccccc1NC(=O)c1ccccc1C(F)(F)F` (racemic) [Example 3] was 4.63; that for `Cn1cc(C(=O)Nc2ccccc2CC[Si](C)(C)C)c(I)n1` [Example 8] was 3.68; that for `CC(C[Si](C)(C)C)c1ccccc1NC(=O)c1ccccc1I` (racemic) [Example 2] was 4.67. For the compound `C[Si](C)(C)C#Cc1ccccc1NC(=O)c1ccccc1Cl` [Example 20], the logP came to 4.96. Same read-out and setting: the value for `C[Si](C)(C)C#Cc1ccccc1NC(=O)c1ccccc1I` [Example 19] was 4.97; that for `CC(C[Si](C)(C)C)c1ccccc1NC(=O)c1ccccc1Br` (racemic) [Example 7] was 4.58; that for `C[Si](C)(C)CCc1cc(F)ccc1NC(=O)c1ccccc1C(F)(F)F` [Example 26] was 4.39. On the same count and under the same terms, the value for `CC(C[Si](C)(C)C)c1ccccc1NC(=O)c1occc1I` (racemic) [Example 11] was 4.73; that for `C[Si](C)(C)CCc1ccccc1NC(=O)c1ccccc1I` [Example 4] was 4.40.

Staying with this data set, now noted: pH 2.3, C 18 reverse-phase column, 43° C.
As a reminder, the chromatographic logP is a lipophilicity value derived from retention on a column. A lower chromatographic logP goes with a more hydrophilic compound. In turn, `CC(C[Si](C)(C)C)c1ccccc1N` (stereo not shown) [Example (III-1), 2-(1-methyl-2-trimethylsilylethyl)phenylamine] yielded a chromatographic logP of 3.05.

`C[Si](C)(C)CCc1ccccc1N` [Example (III-2), 2-(2-trimethylsilylethyl)phenylamine]: the chromatographic logP is 2.58. Still for that read-out and setting: as for `C[Si](C)(C)C#Cc1ccccc1[N+](=O)[O-]` [trimethyl-(2-nitrophenyl-ethynyl)silane], the figure is 4.12; as for `C[Si](C)(C)CCc1ccccc1NC(=O)c1ccccc1Br` [Example 1, 2-bromo-N-[2-(2-trimethylsilyl-ethyl)phenyl]benzamide], 4.32.
